“Also recorded” adds a separate entry of the source. Like-named read-outs stand apart in the source and are kept apart here.
Legend:
[1] = system: eight renal cancer cell line (786-0, A498, ACHN, CAKI-1, SN12C, TK-10, UO-31 and RXF 393); assay: in vitro anticancer activity, renal panel; type: cell-based; conditions: Homo sapiens; eight renal cancer cell lines, exposure at least 48 h; read-out: in vitro anticancer activity, range over panel
SR = assay: SRB 48 h growth assay, Leukemia SR; type: cell-based, human; conditions: Homo sapiens; for CC50: read-out: Log10 LC50 (converted)
[2] = system: sixty human cancer cell lines; assay: anticancer activity against sixty human cancer cell lines (NCI)
Description: The compounds were evaluated for anticancer activity against sixty human cancer cells derived from nine cancer types (leukemia cell line, non-small-cell lung cell line, colon cell line, CNS cell line, melanoma cell line, ovarian cell line, prostate cell line, renal cell line and breast cancer cell line) as shown in Table 1. For each compound, dose response curves for each cell line were measured at a minimum of five concentrations at 10 fold dilutions. A protocol of 48 h continuous drug exposure was used and a sulforhodamine B (SRB) protein assay was used to estimate cell viability or growth.

MOLT-4 = assay: SRB 48 h growth assay, Leukemia MOLT-4; type: cell-based, human; conditions: MOLT-4, Leukemia; for GI50 / CC50: Homo sapiens; for CC50: read-out: Log10 LC50 (converted)
HT-29 = assay: SRB 48 h growth assay, Colon HT-29; type: cell-based, human; conditions: HT-29, Colon
SK-MEL-2 = assay: SRB 48 h growth assay, Melanoma SK-MEL-2; type: cell-based, human; conditions: SK-MEL-2, Melanoma; for GI50: Homo sapiens
T-47D = assay: SRB 48 h growth assay, Breast T-47D; type: cell-based, human; conditions: for GI50: Homo sapiens, T47D
MALME-3M = assay: SRB 48 h growth assay, Melanoma MALME-3M; type: cell-based, human
COLO 205 = assay: SRB 48 h growth assay, Colon COLO 205; type: cell-based, human; conditions: COLO 205, Colon
OVCAR-5 = assay: SRB 48 h growth assay, Ovarian OVCAR-5; type: cell-based, human; conditions: OVCAR-5, Ovarian; for GI50: Homo sapiens
CAKI-1 = assay: SRB 48 h growth assay, Renal CAKI-1; type: cell-based, human; conditions: CAKI-1, Renal
U251 = assay: SRB 48 h growth assay, CNS U251; type: cell-based, human
UO-31 = assay: SRB 48 h growth assay, Renal UO-31; type: cell-based, human; conditions: UO-31, Renal
NCI-H322M = assay: SRB 48 h growth assay, Non-small Cell Lung NCI-H322M; type: cell-based, human
HCT-15 = assay: SRB 48 h growth assay, Colon HCT-15; type: cell-based, human; conditions: HCT-15, Colon; for GI50: Homo sapiens
HCC-2998 = assay: SRB 48 h growth assay, Colon HCC-2998; type: cell-based, human; conditions: HCC-2998, Colon
[3] = read-out: Growth Inhibition GI50
[4] = read-out: Log10 GI50 (converted)
[5] = Homo sapiens, read-out: Growth Inhibition GI50
[6] = Homo sapiens, read-out: Log10 GI50 (converted)
[7] = Homo sapiens, read-out: Log10 LC50 (converted)

Work on `C#Cc1ccc(-n2c(/C=C/c3ccc(Cl)c(F)c3)nc3ncccc3c2=O)cc1` [4g, (E)-2-(4-chloro-3-fluorostyryl)-3-(4-ethynylphenyl)pyrido[2,3-d]pyrimidin-4(3H)-one] yielded a GI50 [1] of 280 to 360 nM, a GI50 (SR; [3]) of 330 nM and a GI50 (SR; [4]) of 331 nM. For the same molecule, the CC50 (SR) was over 100000 nM, the “anticancer activity (in words)” value [2] was “highest anticancer activity; also recorded: good profile at nanomolar range growth inhibition activity in several cancer cell lines” and the GI50 (MOLT-4; [3]) was 540 nM. For the same molecule, the GI50 (MOLT-4; [4]) was 550 nM, the CC50 (MOLT-4) was over 100000 nM and the “Log10 TGI50” value (MOLT-4) was over −4.00.

`C#Cc1ccc(-n2c(/C=C/c3ccc4ccccc4n3)nc3ncccc3c2=O)cc1` [4t, (E)-3-(4-Ethynylphenyl)-2-(2-(quinolin-2-yl)vinyl)pyrido[2,3-d]pyrimidin-4(3H)-one] was tested, and the “Log10 TGI50” value (HT-29) was −5.96, the GI50 (HT-29; [5]) was 360 nM and the GI50 (HT-29; [6]) was 372 nM. For the same molecule, the CC50 (HT-29; [7]) was 4270 nM, the GI50 (SK-MEL-2; [3]) was 410 nM and the GI50 (SK-MEL-2; [4]) was 417 nM. For the same molecule, the “Log10 TGI50” value (SK-MEL-2) was −5.80, the “Log10 TGI50” value (T-47D) was −6.05 and the GI50 (T-47D; [3]) was 290 nM. For the same molecule, the GI50 (T-47D; [4]) was 295 nM, the “Log10 TGI50” value (MALME-3M) was −5.50 and the GI50 (MALME-3M; [5]) was 1210 nM. For the same molecule, the GI50 (MALME-3M; [6]) was 1200 nM, the CC50 (MALME-3M; [7]) was 8320 nM and the “Log10 TGI50” value (COLO 205) was −6.13. The GI50 (COLO 205; [5]) was 300 nM, the GI50 (COLO 205; [6]) was 302 nM and the CC50 (COLO 205; [7]) was 3630 nM. It also gave a GI50 [1] of 1480 to 8780 nM, a GI50 (OVCAR-5; [3]) of 310 nM and a GI50 (OVCAR-5; [4]) of 309 nM. The “Log10 TGI50” value (OVCAR-5) was −5.97, the GI50 (SR; [3]) was 270 nM and the GI50 (SR; [4]) was 275 nM. For the same molecule, the CC50 (SR) was over 100000 nM, the “Log10 TGI50” value (CAKI-1) was −5.81 and the GI50 (CAKI-1; [5]) was 320 nM. For the same molecule, the GI50 (CAKI-1; [6]) was 324 nM, the CC50 (CAKI-1; [7]) was over 100000 nM and the “Log10 TGI50” value (U251) was −5.84. It also gave a GI50 (U251; Homo sapiens, U-251, read-out: Growth Inhibition GI50) of 340 nM, a GI50 (U251; Homo sapiens, U-251, read-out: Log10 GI50 (converted)) of 339 nM and a CC50 (U251; Homo sapiens, U-251, read-out: Log10 LC50 (converted)) of 8130 nM. The GI50 (UO-31; [5]) was 310 nM, the GI50 (UO-31; [6]) was 316 nM and the CC50 (UO-31; [7]) was 6920 nM. For the same molecule, the “Log10 TGI50” value (UO-31) was −5.78, the “Log10 TGI50” value (NCI-H322M) was −5.62 and the GI50 (NCI-H322M; [5]) was 520 nM. For the same molecule, the GI50 (NCI-H322M; [6]) was 525 nM, the CC50 (NCI-H322M; [7]) was over 100000 nM and the GI50 (MOLT-4; [3]) was 450 nM. For the same molecule, the GI50 (MOLT-4; [4]) was 457 nM, the CC50 (MOLT-4) was over 100000 nM and the “Log10 TGI50” value (MOLT-4) was over −4.00. The “Log10 TGI50” value (HCT-15) was −5.88, the GI50 (HCT-15; [3]) was 320 nM and the GI50 (HCT-15; [4]) was 331 nM. The “Log10 TGI50” value (HCC-2998) was −5.92, the GI50 (HCC-2998; [5]) was 340 nM and the GI50 (HCC-2998; [6]) was 347 nM. For the same molecule, the CC50 (HCC-2998; [7]) was 6310 nM.
